The text below walks through data of patent US20070203118A1, “SUBSTITUTED TETRAHYDROISOQUINOLINES USED IN THE FORM OF MMP INHIBITORS, METHOD FOR THE PRODUCTION AND USE THEREOF IN THE FORM OF DRUGS” (SANOFI-AVENTIS DEUTSCHLAND GMBH, priority 2004, published 2007).

Bounds are passed on as bounds.

Test [1] concerns the target T1, catalytic domain of human gelatinase-A (MMP-2) (Homo sapiens, UniProt P08253).
T1 construct: Determination of the Enzymatic Activity of the Catalytic Domain of Human Gelatinase-A (MMP-2); purchased INVITEK, Berlin
T1 sequence (P08253 110-660): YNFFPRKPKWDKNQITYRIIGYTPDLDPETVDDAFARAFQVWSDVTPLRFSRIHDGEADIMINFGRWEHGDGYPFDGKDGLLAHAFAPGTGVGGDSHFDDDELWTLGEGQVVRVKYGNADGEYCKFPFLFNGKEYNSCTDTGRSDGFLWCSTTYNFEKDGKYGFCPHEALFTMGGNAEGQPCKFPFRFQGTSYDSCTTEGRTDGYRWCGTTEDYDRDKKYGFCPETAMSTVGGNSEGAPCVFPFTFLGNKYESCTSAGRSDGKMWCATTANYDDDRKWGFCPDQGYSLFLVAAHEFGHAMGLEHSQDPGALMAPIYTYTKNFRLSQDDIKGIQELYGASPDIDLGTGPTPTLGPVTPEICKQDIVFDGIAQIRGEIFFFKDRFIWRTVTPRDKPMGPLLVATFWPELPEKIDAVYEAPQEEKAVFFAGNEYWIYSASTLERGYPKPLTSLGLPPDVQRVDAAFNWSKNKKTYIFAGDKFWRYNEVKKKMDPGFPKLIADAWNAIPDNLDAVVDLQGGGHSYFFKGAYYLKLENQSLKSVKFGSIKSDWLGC
Put plainly: Enzymatic activity of the catalytic domain of human gelatinase-A (MMP-2), fluorogenic substrate. In kind it is biochemical. As to the method: Determination of the Enzymatic Activity of the Catalytic Domain of Human Gelatinase-A (MMP-2)
Activation of the proenzyme: 2 parts by volume of proenzyme were incubated with 1 part by volume of APMA solution at 37° C. for 0.5 hours. The APMA solution was prepared from a 10 mmol/l p-aminophenylmercuric acetate solution in 0.1 mmol/l NaOH by dilution with 3 parts by volume of Tris/HCl buffer pH 7.5 (see below). The pH was adjusted to between 7.0 and 7.5 by adding 1 mmol/l HCl. After activation of the enzyme it was diluted with the Tris/HCl buffer to a concentration of 0.83 μg/ml.
(§1) The enzymic activity was measured by incubating 10 μl of enzyme solution with 10 μl of a 3% strength (v/v) buffered dimethyl sulfoxide solution (reaction 1) for 15 minutes. The enzyme inhibitor activity was measured by incubating 10 μl of enzyme solution with 10 μl of a 3% strength (v/v) buffered dimethyl sulfoxide solution which contained the enzyme inhibitor (reaction 2).
The enzymic reaction both in the case of reaction 1 and in the case of reaction 2 was followed after addition of 10 μl of a 3% strength (v/v) aqueous dimethyl sulfoxide solution which contained 0.3 mmol/l of the substrate by fluorescence spectroscopy (328 nm (extinction)/393 nm (emission)).
(§2) The enzymic activity has been presented as increase in extinction/minute.
(§3) The effect of the inhibitor was calculated as percentage inhibition by the following formula: % inhibition=100−[(increase in extinction/minute in reaction 2)/(increase in extinction/minute in reaction 1)×100].
(§4) The IC50, which is the concentration of inhibitor which is necessary for 50% inhibition of the enzymic activity, was determined graphically by plotting the percentage inhibitions at various inhibitor concentrations.
The buffer solution contained 0.05% Brij (Sigma, Deisenhofen, Germany) and 0.1 mol/l Tris/HCl, 0.1 mol/l NaCl, 0.01 mol/l CaCl2 (pH=7.5). The enzyme solution contained […] of the enzyme domain. The substrate solution contained 0.3 mmol/l of the fluorogenic substrate (7-methoxycoumarin-4-yl)acetyl-Pro-Leu-Gly-Leu-3-(2′,4′-dinitrophenyl)-L-2,3-diaminopropionyl-Ala-Arg-NH2 (Bachem, Heidelberg, Germany).

Test [2] deals with T2, catalytic domain of human gelatinase-A (MMP-9) (Homo sapiens, UniProt P14780).
T2 construct: Determination of the Enzymatic Activity of the Catalytic Domain of Human Gelatinase-A (MMP-9); purchased Roche, Mannheim
T2 sequence (P14780 107-707 limits assumed): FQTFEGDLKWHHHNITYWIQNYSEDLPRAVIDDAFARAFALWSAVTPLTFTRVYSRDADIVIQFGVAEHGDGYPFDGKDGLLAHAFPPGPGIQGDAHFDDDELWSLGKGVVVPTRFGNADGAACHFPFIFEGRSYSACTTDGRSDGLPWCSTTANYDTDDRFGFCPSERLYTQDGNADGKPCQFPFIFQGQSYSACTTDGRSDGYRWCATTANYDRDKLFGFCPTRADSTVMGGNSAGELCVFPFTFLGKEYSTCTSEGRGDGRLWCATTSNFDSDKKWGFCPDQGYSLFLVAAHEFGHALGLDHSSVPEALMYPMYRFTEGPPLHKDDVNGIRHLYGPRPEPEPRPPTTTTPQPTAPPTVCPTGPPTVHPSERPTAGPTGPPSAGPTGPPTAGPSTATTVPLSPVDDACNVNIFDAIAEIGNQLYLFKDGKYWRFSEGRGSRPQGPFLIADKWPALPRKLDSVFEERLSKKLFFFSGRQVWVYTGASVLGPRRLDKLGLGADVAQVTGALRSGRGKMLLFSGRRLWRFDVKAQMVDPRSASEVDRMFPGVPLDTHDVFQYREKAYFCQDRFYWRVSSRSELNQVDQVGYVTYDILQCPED
Put plainly: Enzymatic activity of the catalytic domain of human gelatinase (MMP-9), fluorogenic substrate. In kind it is biochemical. As to conditions: for MMP9:MMP1, selectivity of inhibition of MMP-9 in relation to MMP-1: ratio of the IC50 values of Table 4. The procedure: Determination of the Enzymatic Activity of the Catalytic Domain of Human Gelatinase-A (MMP-9)
Activation of the proenzyme:
2 parts by volume of proenzyme were incubated with 1 part by volume of APMA solution at 37° C. for 4 hours. The APMA solution was prepared from a 10 mmol/l p-aminophenylmercuric acetate solution in 0.1 mmol/l NaOH by dilution with 3 parts by volume of Tris/HCl buffer pH 7.5 (see below). The pH was adjusted to between 7.0 and 7.5 by adding 1 mmol/l HCl. After activation of the enzyme it was diluted with the Tris/HCl buffer to a concentration of 4.2 mU/ml.
as §1
The enzymic reaction both in the case of reaction 1 and in the case of reaction 2 was followed after addition of 10 μl of a 3% strength (v/v) aqueous dimethyl sulfoxide solution which contained 0.15 mmol/l of the substrate by fluorescence spectroscopy (328 nm (extinction)/393 nm (emission)).
as §2, §3, §4
The buffer solution contained 0.05% Brij (Sigma, Deisenhofen, Germany) and 0.1 mol/l Tris/HCl, 0.1 mol/l NaCl, 0.01 mol/l CaCl2 (pH=7.5). The enzyme solution contained 4.2 mU/ml of the enzyme domain. The substrate solution contained 0.15 mmol/l of the fluorogenic substrate (7-methoxycoumarin-4-yl)acetyl-Pro-Leu-Gly-Leu-3-(2′,4′-dinitrophenyl)-L-2,3-diaminopropionyl-Ala-Arg-NH2 (Bachem, Heidelberg, Germany).

For orientation: IC50 means the midpoint of a concentration-inhibition curve. For the molecule `O=C(NO)[C@H]1c2ccccc2CCN1S(=O)(=O)c1ccc(Oc2ccc(OC(F)(F)F)cc2)nc1` [Compound 43, (R)-2-[6-(4-trifluoromethoxyphenoxy)pyridine-3-sulfonyl]-1,2,3,4-tetrahydro-isoquinoline-1-hydroxycarboxamide], the IC50 in test [1] was determined as 23 nM; in test [2] it was 20 nM. Further, the “MMP9:MMP1, selectivity of inhibition of MMP-9 in relation to MMP-1” value in test [2] is reported as more than 500.
“2-{2-[4-(4-fluorophenoxy)phenyl]ethanesulfonyl}-1,2,3,4-tetrahydroisoquinoline-1-hydroxycarboxamide [Compound 20]” returned an IC50 in test [1] of 2 nM. Moreover, in test [2], half-maximal inhibition (IC50) required 1.3 nM and the “MMP9:MMP1, selectivity of inhibition of MMP-9 in relation to MMP-1” value was found to be 231.
For the molecule `COc1ccc(F)c2c1[C@H](C(=O)NO)N(S(=O)(=O)c1ccc(-c3ccc(Cl)cc3)cc1)CC2` [Compound 18], the midpoint of inhibition in test [1], the IC50, lay at 4.5 nM. Further, in test [2], the IC50 turned out to be 60 nM and the “MMP9:MMP1, selectivity of inhibition of MMP-9 in relation to MMP-1” value is given as 67.
The like results for `O=C(NO)[C@H]1c2ccccc2CCN1S(=O)(=O)c1ccc(Oc2ccncc2)cc1` [Compound 11] were, in that order, 2.3 nM, 1.8 nM and 78.
The molecule `O=C(NO)[C@H]1c2ccccc2CCN1S(=O)(=O)c1ccc(Oc2ccc(Cl)cc2)cc1` [Compound 9] came in with an IC50 in test [1] of 2 nM. Besides, in test [2], the IC50 is 1 nM and the “MMP9:MMP1, selectivity of inhibition of MMP-9 in relation to MMP-1” value amounted to 2.
Regarding `O=C(NO)[C@H]1c2ccccc2CCN1S(=O)(=O)c1ccc(Oc2ccc(C(F)(F)F)cc2)cc1` [Compound 21, (R)-2-[4-(4-trifluoromethylphenoxy)benzenesulfonyl]-1,2,3,4-tetrahydro-isoquinoline-1-hydroxycarboxamide], the IC50 in test [1] came to 2.2 nM; in test [2] it was 3.2 nM. In test [2], the “MMP9:MMP1, selectivity of inhibition of MMP-9 in relation to MMP-1” value was determined as 313.
For `O=C(NO)[C@H]1c2ccccc2CCN1S(=O)(=O)c1ccc(Oc2ccc(Cl)cc2)nc1` [Compound 45, (R)-2-[6-(4-chlorophenoxy)pyridine-3-sulfonyl]-1,2,3,4-tetrahydroisoquinoline-1-hydroxycarboxamide], the IC50 amounted to 2 nM in test [1] and 3 nM in test [2]. In addition, the “MMP9:MMP1, selectivity of inhibition of MMP-9 in relation to MMP-1” value in test [2] turned out to be 667.
Regarding `COc1cc2c(cc1OC)[C@@H](C(=O)NO)N(S(=O)(=O)c1ccc(-c3ccc(Cl)cc3)cc1)CC2` [Compound 15], the IC50 in test [1] and in test [2] was 1 nM throughout. The “MMP9:MMP1, selectivity of inhibition of MMP-9 in relation to MMP-1” value in test [2] is recorded as 300.
`O=C(NO)[C@H]1c2ccccc2CCN1S(=O)(=O)c1ccc(Oc2ccc(OCC(F)(F)F)cc2)cc1` [Compound 22] gave an IC50 in test [1] of 25 nM. Besides, in test [2], the IC50 is 18 nM and the “MMP9:MMP1, selectivity of inhibition of MMP-9 in relation to MMP-1” value came out at 89.
With “(R)-4-(1-hydroxycarbamoyl-3,4-dihydro-1H-isoquinoline-2-sulfonyl)phenyl benzoate [Compound 48]”, the IC50 in test [1] and in test [2] was 2 nM each time.
